Data: PubChem BioAssay AID1963972 (Molecular Pharmacology Branch, DTP, NCI, 2024)
pIC50: −log10 of the molar value. Values belong to the molecule of their own block, whether it stands above or below them.

Test system: 945468-187-T-J2-PDC spheroids viability
Test: Anticancer human tumor 945468-187-T-J2-PDC patient-derived rectal carcinoma cell line growth inhibition [PI3K]
Conditions: spheroids with HUVEC and MSC; for pIC50: curve of first compound; for viability, T/C: stronger effect = lower value
Outline: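 Combination activity was assessed by viability in multicellular tumor spheroids carrying HUVEC and MSC components. Agents were tested with PI3K inhibitors from a Cmax-based top dose (or 10 microM) downward in half-log increments.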
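Also: spheroids exposed to compounds for seven days before reading.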

pIC50 (second compound 0.0316 µM): < 5.00 | pIC50 (second compound 0.1 µM): < 5.00 | pIC50 (second compound 0.316 µM): < 5.00 | pIC50 (second compound 1 µM): < 5.00 | pIC50 (second compound 3.16 µM): < 5.00 | pIC50 (second compound 10 µM): < 5.00
SMILES: CNC(=O)c1ccc(N2C(=S)N(c3ccc(C#N)c(C(F)(F)F)c3)C(=O)C2(C)C)cc1F + Cc1nc(NC(=O)N2CCCC2C(N)=O)sc1-c1ccnc(C(C)(C)C(F)(F)F)c1
viability, T/C (second compound 0.0316 µM, first compound 0.0316 µM): 116% | viability, T/C (second compound 0.0316 µM, first compound 0.1 µM): 103% | viability, T/C (second compound 0.0316 µM, first compound 0.316 µM): 88.8% | viability, T/C (second compound 0.0316 µM, first compound 1 µM): 106% | viability, T/C (second compound 0.0316 µM, first compound 3.16 µM): 108% | viability, T/C (second compound 0.0316 µM, first compound 10 µM): 102% | viability, T/C (second compound 0.1 µM, first compound 0.0316 µM): 95.4% | viability, T/C (second compound 0.1 µM, first compound 0.1 µM): 82% | viability, T/C (second compound 0.1 µM, first compound 0.316 µM): 91.3% | viability, T/C (second compound 0.1 µM, first compound 1 µM): 95.5% | viability, T/C (second compound 0.1 µM, first compound 3.16 µM): 102% | viability, T/C (second compound 0.1 µM, first compound 10 µM): 85.7% | viability, T/C (second compound 0.316 µM, first compound 0.0316 µM): 108% | viability, T/C (second compound 0.316 µM, first compound 0.1 µM): 105% | viability, T/C (second compound 0.316 µM, first compound 0.316 µM): 91.5% | viability, T/C (second compound 0.316 µM, first compound 1 µM): 118% | viability, T/C (second compound 0.316 µM, first compound 3.16 µM): 85.5% | viability, T/C (second compound 0.316 µM, first compound 10 µM): 92.6% | viability, T/C (second compound 1 µM, first compound 0.0316 µM): 93.3% | viability, T/C (second compound 1 µM, first compound 0.1 µM): 86.2% | viability, T/C (second compound 1 µM, first compound 0.316 µM): 110% | viability, T/C (second compound 1 µM, first compound 1 µM): 79.8% | viability, T/C (second compound 1 µM, first compound 3.16 µM): 78.4% | viability, T/C (second compound 1 µM, first compound 10 µM): 92.9% | viability, T/C (second compound 3.16 µM, first compound 0.0316 µM): 81.1% | viability, T/C (second compound 3.16 µM, first compound 0.1 µM): 85.8% | viability, T/C (second compound 3.16 µM, first compound 0.316 µM): 84.7% | viability, T/C (second compound 3.16 µM, first compound 1 µM): 83% | viability, T/C (second compound 3.16 µM, first compound 3.16 µM): 89% | viability, T/C (second compound 3.16 µM, first compound 10 µM): 83.6% | viability, T/C (second compound 10 µM, first compound 0.0316 µM): 83.1% | viability, T/C (second compound 10 µM, first compound 0.1 µM): 68.5% | viability, T/C (second compound 10 µM, first compound 0.316 µM): 74.1% | viability, T/C (second compound 10 µM, first compound 1 µM): 73.5% | viability, T/C (second compound 10 µM, first compound 3.16 µM): 72.6% | viability, T/C (second compound 10 µM, first compound 10 µM): 63.5%

pIC50 (second compound 0.0316 µM): < 5.52 | pIC50 (second compound 0.1 µM): < 5.52 | pIC50 (second compound 0.316 µM): < 5.52 | pIC50 (second compound 1 µM): < 5.52 | pIC50 (second compound 3.16 µM): 5.59 | pIC50 (second compound 10 µM): 6.05
SMILES: Cn1cnc2c(F)c(Nc3ccc(Br)cc3Cl)c(C(=O)NOCCO)cc21 + Cc1nc(NC(=O)N2CCCC2C(N)=O)sc1-c1ccnc(C(C)(C)C(F)(F)F)c1
viability, T/C (second compound 0.0316 µM, first compound 0.00949 µM): 87.9% | viability, T/C (second compound 0.0316 µM, first compound 0.03 µM): 73.6% | viability, T/C (second compound 0.0316 µM, first compound 0.0949 µM): 79.8% | viability, T/C (second compound 0.0316 µM, first compound 0.3 µM): 71.8% | viability, T/C (second compound 0.0316 µM, first compound 0.949 µM): 66.7% | viability, T/C (second compound 0.0316 µM, first compound 3 µM): 62% | viability, T/C (second compound 0.1 µM, first compound 0.00949 µM): 110% | viability, T/C (second compound 0.1 µM, first compound 0.03 µM): 84.5% | viability, T/C (second compound 0.1 µM, first compound 0.0949 µM): 88.9% | viability, T/C (second compound 0.1 µM, first compound 0.3 µM): 77.4% | viability, T/C (second compound 0.1 µM, first compound 0.949 µM): 70.9% | viability, T/C (second compound 0.1 µM, first compound 3 µM): 63.1% | viability, T/C (second compound 0.316 µM, first compound 0.00949 µM): 99% | viability, T/C (second compound 0.316 µM, first compound 0.03 µM): 74.1% | viability, T/C (second compound 0.316 µM, first compound 0.0949 µM): 82.4% | viability, T/C (second compound 0.316 µM, first compound 0.3 µM): 75.1% | viability, T/C (second compound 0.316 µM, first compound 0.949 µM): 68.7% | viability, T/C (second compound 0.316 µM, first compound 3 µM): 69.4% | viability, T/C (second compound 1 µM, first compound 0.00949 µM): 71.7% | viability, T/C (second compound 1 µM, first compound 0.03 µM): 114% | viability, T/C (second compound 1 µM, first compound 0.0949 µM): 80.6% | viability, T/C (second compound 1 µM, first compound 0.3 µM): 76.6% | viability, T/C (second compound 1 µM, first compound 0.949 µM): 66.5% | viability, T/C (second compound 1 µM, first compound 3 µM): 55.6% | viability, T/C (second compound 3.16 µM, first compound 0.00949 µM): 68.6% | viability, T/C (second compound 3.16 µM, first compound 0.03 µM): 78% | viability, T/C (second compound 3.16 µM, first compound 0.0949 µM): 97.3% | viability, T/C (second compound 3.16 µM, first compound 0.3 µM): 67.8% | viability, T/C (second compound 3.16 µM, first compound 0.949 µM): 70.8% | viability, T/C (second compound 3.16 µM, first compound 3 µM): 47.1% | viability, T/C (second compound 10 µM, first compound 0.00949 µM): 77.3% | viability, T/C (second compound 10 µM, first compound 0.03 µM): 68.2% | viability, T/C (second compound 10 µM, first compound 0.0949 µM): 68.8% | viability, T/C (second compound 10 µM, first compound 0.3 µM): 61.2% | viability, T/C (second compound 10 µM, first compound 0.949 µM): 51.8% | viability, T/C (second compound 10 µM, first compound 3 µM): 10.5%
